Experimental data as given in PubChem BioAssay AID743395 (Broad Institute, 2014).
“And” between values parts separate entries of the source, which are not always exact repeats. Identical values can stand only once.

Test system: HepG2 viability, CellTiter-Glo ATP luminescence, 72 h
Assay: viability loss in human hepatoma cells – cell-based, CellTiter-Glo luminescence, cherry-pick, set 2, cytotoxicity control, dose response (AID 743395)

| SMILES | AC35 |
| --- | --- |
| Clc1ccc2c(c1)-c1ccccc1C1=NCCN12 | 3.06 µM |
| Cc1ccc(C)c(C2NC(=O)c3ccccc3N2)c1 (stereo unspecified) | 5.13 µM |
| CCCCN1C(=O)CC(C(=O)OCC)=C1C | 22 µM |
| COc1cc(C2CC(=O)N(c3ccc(C)cc3)C(=O)C2)cc(OC)c1OC | 10.7 µM |
| Cc1cccc(NS(=O)(=O)c2ccc(-c3cnc(C4CC4)o3)cc2)c1 | 5.11 µM |
| OC[C@@H]1CN(Cc2ccc(-c3ccccc3)cc2)C[C@H](n2cnc3c(NC4CC4)ncnc32)O1 | 19.3 µM |
| O=C(Cc1ccccc1)N1CC(=O)N2[C@H](C1)[C@@H](c1ccc(C#Cc3ccccc3)cc1)[C@@H]2CO | 20.3 µM |
| Cc1ccc(-c2ccc3c(c2)O[C@H](CN(C)Cc2ccccn2)[C@@H](C)CN([C@H](C)CO)S3(=O)=O)cc1 | 13.8 µM |
| O=C1/C(=C\c2cc(Cl)c(O)c(Cl)c2)SC(=S)N1Cc1ccccc1 | 15.4 µM |
| COc1cccc2c1C(=O)c1c(O)c3c(c(O)c1C2=O)CC(O)(C(C)=O)CC3OC1CC(N(C)C)C(O)C(C)O1 (stereo unspecified) | 0.0849 µM |
| Oc1ccc2ccccc2c1/C=C/c1ccc2c(Br)cc(Br)c(O)c2n1 | 9.42 µM |
| CN(Cc1ccccc1)S(=O)(=O)c1ccc(NC(=S)NC(=O)C2CCCC2)cc1 | 9.62 µM |
| COc1cc(OC)cc(-c2nc3ccccc3c(=O)n2OC(=O)c2ccc(C)c(C)c2)c1 | 21.5 µM |
| COc1cc(OC)c2c(-c3cccc(-c4cccc(N)c4)c3)cc(=O)oc2c1 | 13.4 µM |
| C[C@@H]1O[C@@H](O[C@@H]2C=C3CC[C@@H]4C(CC[C@]5(C)[C@@H](c6ccc(=O)oc6)CC[C@]45O)[C@@]3(C)CC2)[C@H](O)[C@H](O)[C@H]1O (stereo partly specified) | 0.116 µM |
| O=C(NCc1ccccc1)C1Cc2c(-c3ccc(Cl)cc3)ccnc2O1 (stereo unspecified) | 9.8 µM |
| N=C1/C(=C/c2cccn2CCOc2ccccc2)C(=O)N=C2SC=C(c3ccccc3)N12 | 19.3 µM |
| COc1cccc(N2CCN(C(=O)c3ccc(CS(=O)c4ccc(C)cc4)o3)CC2)c1 (stereo unspecified) | 0.833 µM |
| Cc1cc2[nH]c3c(c[n+](C)c4ccccc34)c2cc1C | 2.58 µM |
| CN1c2ccc(-c3ccc(F)cc3)cc2[C@H]2[C@H](CCN2S(=O)(=O)c2ccc(F)cc2)[C@@H]1CO | 20.9 µM |
| C[n+]1c2cc(N)ccc2cc2ccc(N)cc21 | 1.17 µM and 2.2 µM |
| CCCCC(=NCCc1c(C)[nH]c2ccc(OC)cc12)C1=C(O)CC(c2ccccc2)CC1=O (stereo unspecified) | 8.11 µM |
| O=[N+]([O-])c1ccc(Sc2cccc[n+]2[O-])c2nonc12 | 5.72 µM |
| COc1cc(OC)c2c(-c3cccc(-c4sccc4C(C)=O)c3)cc(=O)oc2c1 | 7.12 µM |
| COc1ccccc1Nc1c2c(nc3ccccc13)CCC2 | 7.12 µM |
| COc1cc(OC)cc(-c2cc3ccc(OC)cc3cn2)c1 | 4.68 µM |

| SMILES | AC35 |
| --- | --- |
| C[C@H](CO)N1C[C@H](C)[C@@H](CN(C)Cc2ccc(Cl)c(Cl)c2)Oc2ccc(NC(=O)Nc3ccc(C(F)(F)F)cc3)cc2CC1=O | 10.5 µM |
| CCCC#Cc1ccc([C@H]2[C@@H](CO)N3CCCCN(S(=O)(=O)c4ccccc4C)C[C@H]23)cc1 | 8.96 µM |
| C[C@@H]1CN([C@@H](C)CO)C(=O)Cc2cc(N(C)C)ccc2O[C@@H]1CN(C)Cc1ccc(C(=O)Nc2ccccc2N)cc1 | 11.5 µM |
| Cc1ccnc2c1ccc1cccnc12 | 2.98 µM |
| c1ccc2c(c1)C1=NCCN1c1ccccc1-2 | 3.01 µM |
| O=C(N/N=C/c1cc2c3c(c1O)CCCN3CCC2)c1ccccc1O | 0.751 µM |
| COC1C(C)OC(OC2CC(C)(O)Cc3cc4c(c(O)c32)C(=O)c2c(O)cc3c(c2C4=O)OC2OC3(C)C(O)C(N(C)C)C2O)C(OC)C1(C)OC (stereo unspecified) | 5.03 µM |
| O=C(N/N=C/c1cc(Br)cc(Cl)c1O)c1ccc2c(c1)OCO2 | 10.6 µM |
| CN1c2ccc(-c3ccc(F)cc3)cc2[C@H]2[C@H](CCN2S(=O)(=O)c2ccc(F)cc2)[C@H]1CO | 19.5 µM |
| COc1ccc(C2=NOC(C(=O)NCc3ccc(F)cc3)C2)cc1OC (stereo unspecified) | 7.73 µM |
| CCOC(=O)c1c(C)[nH]c(C(=O)N/N=C\c2ccccc2O)c1C | 2.34 µM |
| CCc1ccc(-c2nc(C(N)=O)c3[nH]c(=O)n(-c4ccccc4OC)c3n2)cc1 | 9.05 µM |
| C=C1C(=O)O[C@@H]2[C@H]1[C@@H](OC(=O)/C(C)=C/C)C/C(C)=C\C(=O)/C=C(\C)[C@@H]2O | 8.97 µM |
| CCN(CC)CCCNc1nc2ccccc2c2[nH]c3ccc(OC)cc3c12 | 2.39 µM |
| CN(C)C(=O)C(CCN1CCC(O)(c2ccc(Cl)cc2)CC1)(c1ccccc1)c1ccccc1 | 10.1 µM |
| COc1ccc(-c2ccc3c(c2)[C@H]2[C@H](CCN2S(=O)(=O)c2ccc(OC)cc2)[C@H](CO)N3C)cc1 | 6.5 µM |
| COc1ccccc1Nc1nc(-c2sc(NC(=O)C(C)(C)C)nc2C)cs1 | 15.7 µM |
| CCCC(=O)NC(NC(=S)Nc1ccc(N=Nc2ccccc2)cc1)C(Cl)(Cl)Cl (stereo unspecified) | 5.73 µM |
| O=C(OCc1ccc(Br)cc1)c1cc([N+](=O)[O-])ccc1N1CCOCC1 | 10.8 µM |
| CC1OC(OC2CC(O)C3(CO)C4C(O)CC5(C)C(C6=CC(=O)OC6)CCC5(O)C4CCC3(O)C2)C(O)C(O)C1O (stereo unspecified) | 0.201 µM |
| COc1ccc(C(=O)NCCN(C)C)c2nc3ccccc3cc12 | 2.81 µM |
| COc1ccc(C(=O)OCC(=O)N2C(C)CCCC2C)cc1S(=O)(=O)N1CCOCC1 (stereo unspecified) | 18.7 µM |
| CC(=O)NC(c1ccc(Cl)cc1)c1ccc2cccnc2c1O (stereo unspecified) | 2.14 µM |
| CC(=O)Nc1ccc(Nc2c3ccccc3nc3ccccc23)cc1 | 5.33 µM |
| COCCNC(=O)c1cc(-c2ccc(-c3ccccc3)cc2)nc2ccccc12 | 17.9 µM |
| CCc1c(C)nc2ncnn2c1NCCc1ccc(OC)cc1 | 11.5 µM |

| SMILES | AC35 |
| --- | --- |
| Cc1ccc(-c2csc3ncn(CC#N)c(=O)c23)cc1C | 17.9 µM |
| CCN(CC)C(=O)c1oc2ccc(S(=O)(=O)N3CC(C)CC(C)C3)cc2c1C (stereo unspecified) | 12.9 µM |
| CO/N=C\CC(=O)Nc1ccc(Cl)cc1Cl | 16.1 µM |
| O=C(c1cc(-c2ccncc2)nc2c(Cl)cccc12)N1CCN(c2ccccc2F)CC1 | 8.73 µM |
| CC(=NNC(=S)N(Cc1ccccn1)Cc1ccccn1)c1cnccn1 | 2.87 µM |
| O=C(NCCN1C(=O)S/C(=C\c2ccc(OC(F)F)cc2)C1=O)c1cnccn1 | 10.5 µM |
| CCC(=O)NC(c1ccc(C)cc1)c1ccc2cccnc2c1O (stereo unspecified) | 1.42 µM |
| CCCC(=O)NC(c1ccc(C(C)C)cc1)c1ccc2cccnc2c1O (stereo unspecified) | 0.948 µM |
| CCN(CC)CCC(=O)Nc1cccc2c1C(=O)c1ccccc1C2=O | 6.39 µM |
| COc1cc(Nc2c3c(nc4ccccc24)CCC3)cc(OC)c1OC | 7.54 µM |
| COc1ccccc1NC(=S)NN=C(C)c1ccccn1 | 0.0927 µM |
| O=C(c1ccc(Br)cc1)c1cc([N+](=O)[O-])ccc1N1CCOCC1 | 3.19 µM |
| CC(C)C[C@H]1CN([C@@H](Cc2ccc(O)cc2)CN2CCC[C@H]2CN2C(=O)C(=O)NC[C@@H]2Cc2ccccc2)C(=O)C(=O)N1CC1CCCCC1 | 15 µM |
| COc1nc(-c2ccccc2)cc(-c2ccc3c(c2)OCO3)c1C#N | 8.32 µM |
| O=C1OCC2=C1C(c1ccc3c(c1)OCO3)c1cc3c(cc1O2)OCO3 (stereo unspecified) | 3.26 µM |
| COc1cc(NC(=O)N2CCNC2=O)cc(C(=O)Nc2cccc(C(F)(F)F)c2)c1 | 1.54 µM |
| O=C1CN(S(=O)(=O)Cc2ccccc2)C[C@@H]2[C@@H](c3ccc(C#Cc4cccc(F)c4)cc3)[C@H](CO)N12 | 14.1 µM |
| c1coc(-c2nc3ccccc3s2)c1 | 7.04 µM |
| Cc1nn(S(=O)(=O)c2ccc(Cl)cc2)c(C)c1Sc1ccc([N+](=O)[O-])cc1 | 21.8 µM |
| CN(C)CCCN(C(=O)c1ccco1)c1nc(-c2ccc(Cl)cc2)cs1 | 22.2 µM |
| COc1cc2c(-c3ccccc3)c(C)oc2cc1/C=N/NC(N)=S | 6.29 µM |
| CCCC(=O)NC(c1ccc(N(C)C)cc1)c1ccc2cccnc2c1O (stereo unspecified) | 1.18 µM |
| C[C@@H]1CN([C@H](C)CO)C(=O)c2cc(NS(=O)(=O)c3ccc(Cl)cc3)ccc2O[C@@H]1CN(C)Cc1ccc(-c2ccccc2)cc1 | 16.8 µM |
| CCCn1c(CN2CCN(C(=O)OCC)CC2)nc2cc(NC(=O)CC)ccc21 | 18.9 µM |
| COc1ccc(OC)c(/C(C)=N\NC(=O)c2cc3cc(Cl)ccc3n2C)c1 | 14 µM |
| O=C1c2ccc3c4c(ccc(c24)C(=O)N1CCCCO)C(=O)N(CCCCO)C3=O | 2.63 µM |

| SMILES | AC35 |
| --- | --- |
| COc1ccccc1N=C1SC(C(=O)Nc2cccc(Cl)c2Cl)C(N)=C1C(N)=O (stereo unspecified) | 18.4 µM |
| Cc1nc(N)[nH]c(=O)c1CCCNS(=O)(=O)c1ccc([N+](=O)[O-])cc1 | 17.1 µM |
| C[C@H]1CN([C@@H](C)CO)C(=O)c2cccc(NC(=O)Nc3ccc(C(F)(F)F)cc3)c2O[C@H]1CN(C)C(=O)NC1CCCCC1 | 11.2 µM |
| Cc1ccc2c(c1)CCCN2C(=O)CCc1nc2ccccc2c(=O)[nH]1 | 7.93 µM |
| N#C[C@H]1[C@H](c2ccc(C3=CCCCC3)cc2)[C@@H](CO)N1C(=O)NC1CCCCC1 | 10.3 µM |
| O=c1ccc2c(-c3ccccc3)c3ccc(O)cc3oc-2c1 | 17.8 µM |
| CCC(=O)N1CC2(CCN(Cc3ccc(Cl)cc3)CC2)c2c(n(C)c3cc(OC)ccc23)[C@H]1CO | 9.27 µM |
| Cn1cccc1/C=C1\SC(=Nc2ccccc2)NC1=O | 4.22 µM |
| COc1ccc(CC(=O)NCc2ccc(-n3cccc3)cc2)cc1OC | 9.29 µM |
| Cc1onc(-c2ccccc2Cl)c1C(=O)N1CCN(c2cccc(Cl)c2)CC1 | 13.5 µM |
| O=C1CN(S(=O)(=O)Cc2ccccc2)C[C@@H]2[C@@H](c3ccc(C#Cc4cccc(F)c4)cc3)[C@@H](CO)N12 | 7.38 µM |
| CCC(COC(=O)c1cc(OC)c(OC)c(OC)c1)(c1ccccc1)N(C)C (stereo unspecified) | 18.4 µM |
| Nc1ccn(C2OC(CO)C(O)C2O)c(=O)n1 (stereo unspecified) | 6.2 µM |
| Oc1ccc2ccccc2c1N=Nc1nccs1 | 11.3 µM |
| CNc1c2cccc(C)c2nc2c(C(=O)NCCN(C)C)cccc12 | 0.428 µM |
| CC(=O)N1CCc2cc(S(=O)(=O)N3c4ccccc4CC3C)ccc21 (stereo unspecified) | 10.2 µM |
| COc1ccc(S(=O)(=O)Nc2ccc3c(c2)C(=O)N([C@H](C)CO)C[C@@H](C)[C@@H](CN(C)Cc2ccc(Cl)c(Cl)c2)O3)cc1 | 14.1 µM |
| CCN1CCN(c2cc(C)c3cc(NC(=O)c4ccc(OC)c(OC)c4)ccc3n2)CC1 | 12.4 µM |
| Cc1c(C(=O)N/N=C/c2c(O)ccc3ccccc23)nnn1-c1nonc1N | 1.32 µM |
| CC(=O)c1ccc(Nc2cc(C)nc3c(C)cc(C)cc23)cc1 | 7.71 µM |
| CCOC(=O)c1c(C)[nH]c(C(=O)N/N=C/c2ccc(OC)c(OC)c2)c1C | 6.01 µM |
| COc1ccccc1N1CCN(C(=O)c2ccc(-c3ccc(Cl)cc3)o2)CC1 | 3.02 µM |
| COc1ccc(-c2ccc3c(c2)[C@H]2[C@H](CCN2S(=O)(=O)c2ccc(OC)cc2)[C@@H](CO)N3)cc1 | 14.5 µM |
